# Results: ChEMBL document CHEMBL3045535, “Evaluation of lufenuron as a chemosterilant against fruit flies of the genus Anastrepha (Diptera: Tephritidae)” (2010)
# System: Anastrepha serpentina
# Test: Reduction of fertility in 7 days old adult of Anastrepha serpentina assessed as reduction of egg hatching at 30 mg/g treated with diet measured after 1 day oviposition
# Type: functional
# Design: scale not given: the % may be the effect or the level left
smiles,measurement,value
O=C(NC(=O)c1c(F)cccc1F)Nc1cc(Cl)c(OC(F)(F)C(F)C(F)(F)F)cc1Cl (racemic) [LUFENURON],Activity,49.2%
